Results as given in patent publication US20210267944A1 (BioXcel Therapeutics, Inc., priority 2018, published 2021).
Counter-ions that a name gives are not always drawn. Like-named read-outs stand apart in the source and are kept apart here.

Experiments:
[1] = Opioid withdrawal Study
Description: Additional Assessment Included: • 1. Hematological and blood chemistry, urinalysis • 2. Physical examination • 3. Standard of care detoxification treatment (ancillary medications) to alleviate symptoms of acute withdrawal to ensure safe discharge from study site. • 4. Adverse event reporting

[2] = SDAT
[3] = test system: subjects suffering from opiate withdrawal symptoms;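 note: inpatients in opioid withdrawal given intravenous infusion titrated upward every 30 min (up to 0.1 mcg/kg/hr steps) until COWS total, a clinician-rated 11-item withdrawal scale, fell by half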
[4] = test system: agitated subjects with senile dementia of Alzheimer's type; conditions: human, in vivo
Description: Clinical assessments of cognitive functioning, alertness/awareness, balance and reaction time were performed prior to the IV infusion, at the end of infusion until the participant had reached their baseline parameters or, in the judgment of the principal investigator, the participant had reached a stable and acceptable level of arousal.
Time period at which clinical assessment of cognitive functioning, alertness/awareness, balance, and reaction time persist after drowsiness has resolved was assessed. Cognitive functioning, alertness/awareness, balance, and reaction time reached to their baseline level within around 45 minutes after drowsiness was resolved/recovered (see Table 7).

[5] = Post-ECG, After stopping of Dose

For `Cc1cccc([C@H](C)c2cnc[nH]2)c1C` [dexmedetomidine hydrochloride], the adverse events [1] was “No adverse event was reported”, the “QTc interval, Max” value [2, 5] was 592 and the “QTc interval, Mean ± SD” value [2, 5] was 462.9 ± 73.04. For the same molecule, the “QTc interval, Median” value [2, 5] was 441.0, the “QTc interval, Min” value [2, 5] was 370 and the “QTc interval, Max” value ([2]; Pre-ECG, Before Dosing) was 524. The “QTc interval, Mean ± SD” value ([2]; Pre-ECG, Before Dosing) was 447.2 ± 35.51, the “QTc interval, Median” value ([2]; Pre-ECG, Before Dosing) was 444.3 and the “QTc interval, Min” value ([2]; Pre-ECG, Before Dosing) was 398. It also gave a COW score ([3]; Day 1, Patient OP-1 (Treatment), 00:00 Hr) of 9, a COW score ([3]; Day 1, Patient OP-1 (Treatment), 00:15 Hr) of 2 and a COW score ([3]; Day 1, Patient OP-1 (Treatment), 30 min. post Infusion) of 0. The COW score ([3]; Day 1, Patient OP-2 (Treatment), 00:00 Hr) was 15, the COW score ([3]; Day 1, Patient OP-2 (Treatment), 00:15 Hr) was 11 and the COW score ([3]; Day 1, Patient OP-2 (Treatment), 00:30 Hr) was 9. It also gave a COW score ([3]; Day 1, Patient OP-2 (Treatment), 00:45 Hr) of 12, a COW score ([3]; Day 1, Patient OP-2 (Treatment), 01:00 Hr) of 2 and a COW score ([3]; Day 1, Patient OP-2 (Treatment), 30 min. post Infusion) of 16. The COW score ([3]; Day 1, Patient OP-3 (Treatment), 00:00 Hr) was 13, the COW score ([3]; Day 1, Patient OP-3 (Treatment), 00:15 Hr) was 8 and the COW score ([3]; Day 1, Patient OP-3 (Treatment), 00:30 Hr) was 8. It also gave a COW score ([3]; Day 1, Patient OP-3 (Treatment), 00:45 Hr) of 4, a COW score ([3]; Day 1, Patient OP-3 (Treatment), 30 min. post Infusion) of 3 and a COW score ([3]; Day 1, Patient OP-6 (Treatment), 00:00 Hr) of 11. For the same molecule, the COW score ([3]; Day 1, Patient OP-6 (Treatment), 00:15 Hr) was 7, the COW score ([3]; Day 1, Patient OP-6 (Treatment), 00:30 Hr) was 2 and the COW score ([3]; Day 1, Patient OP-6 (Treatment), 30 min. post Infusion) was 2. For the same molecule, the COW score ([3]; Day 1, Patient OP-7 (Treatment), 00:00 Hr) was 10, the COW score ([3]; Day 1, Patient OP-7 (Treatment), 00:15 Hr) was 8 and the COW score ([3]; Day 1, Patient OP-7 (Treatment), 30 min. post Infusion) was 0. For the same molecule, the COW score ([3]; Day 1, Patient OP-9 (Treatment), 00:00 Hr) was 16, the COW score ([3]; Day 1, Patient OP-9 (Treatment), 00:15 Hr) was 13 and the COW score ([3]; Day 1, Patient OP-9 (Treatment), 00:30 Hr) was 10. For the same molecule, the COW score ([3]; Day 1, Patient OP-9 (Treatment), 00:45 Hr) was 9, the COW score ([3]; Day 1, Patient OP-9 (Treatment), 01:00 Hr) was 10 and the COW score ([3]; Day 1, Patient OP-9 (Treatment), 01:15 Hr) was 6. The COW score ([3]; Day 1, Patient OP-9 (Treatment), 30 min. post Infusion) was 9, the COW score ([3]; Day 1, Patient OP-10 (Treatment), 00:00 Hr) was 10 and the COW score ([3]; Day 1, Patient OP-10 (Treatment), 00:15 Hr) was 7. The COW score ([3]; Day 1, Patient OP-10 (Treatment), 00:30 Hr) was 1, the COW score ([3]; Day 1, Patient OP-10 (Treatment), 30 min. post Infusion) was 3 and the COW score ([3]; Day 1, Patient OP-11 (Treatment), 00:00 Hr) was 16. For the same molecule, the COW score ([3]; Day 1, Patient OP-11 (Treatment), 00:15 Hr) was 16, the COW score ([3]; Day 1, Patient OP-11 (Treatment), 00:45 Hr) was 13 and the COW score ([3]; Day 1, Patient OP-11 (Treatment), 01:00 Hr) was 14. For the same molecule, the COW score ([3]; Day 1, Patient OP-11 (Treatment), 01:15 Hr) was 10, the COW score ([3]; Day 1, Patient OP-11 (Treatment), 01:30 Hr) was 8 and the COW score ([3]; Day 1, Patient OP-11 (Treatment), 30 min. post Infusion) was 8. The COW score ([3]; Day 1, Patient OP-12 (Treatment), 00:00 Hr) was 16, the COW score ([3]; Day 1, Patient OP-12 (Treatment), 00:15 Hr) was 12 and the COW score ([3]; Day 1, Patient OP-12 (Treatment), 00:30 Hr) was 9. The COW score ([3]; Day 1, Patient OP-12 (Treatment), 00:45 Hr) was 9, the COW score ([3]; Day 1, Patient OP-12 (Treatment), 01:00 Hr) was 10 and the COW score ([3]; Day 1, Patient OP-12 (Treatment), 01:15 Hr) was 9. The COW score ([3]; Day 1, Patient OP-12 (Treatment), 01:30 Hr) was 4, the COW score ([3]; Day 1, Patient OP-12 (Treatment), 30 min. post Infusion) was 5 and the COW score ([3]; Day 1, Patient OP-15 (Treatment), 00:00 Hr) was 13. For the same molecule, the COW score ([3]; Day 1, Patient OP-15 (Treatment), 00:15 Hr) was 8, the COW score ([3]; Day 1, Patient OP-15 (Treatment), 00:30 Hr) was 4 and the COW score ([3]; Day 1, Patient OP-15 (Treatment), 30 min. post Infusion) was 4. For the same molecule, the COW score ([3]; Day 1, Patient OP-17 (Treatment), 00:00 Hr) was 10, the COW score ([3]; Day 1, Patient OP-17 (Treatment), 00:15 Hr) was 11 and the COW score ([3]; Day 1, Patient OP-17 (Treatment), 00:30 Hr) was 9. The COW score ([3]; Day 1, Patient OP-17 (Treatment), 00:45 Hr) was 8, the COW score ([3]; Day 1, Patient OP-17 (Treatment), 01:00 Hr) was 4 and the COW score ([3]; Day 1, Patient OP-17 (Treatment), 30 min. post Infusion) was 5. For the same molecule, the COW score ([3]; Day 2, Patient OP-1 (Treatment), 00:00 Hr) was 9, the COW score ([3]; Day 2, Patient OP-1 (Treatment), 00:15 Hr) was 8 and the COW score ([3]; Day 2, Patient OP-1 (Treatment), 00:30 Hr) was 2. For the same molecule, the COW score ([3]; Day 2, Patient OP-1 (Treatment), last cell, 30 min. post Infusion) was 0, the COW score ([3]; Day 2, Patient OP-2 (Treatment), 00:00 Hr) was 14 and the COW score ([3]; Day 2, Patient OP-2 (Treatment), 00:15 Hr) was 11. The COW score ([3]; Day 2, Patient OP-2 (Treatment), 00:30 Hr) was 12, the COW score ([3]; Day 2, Patient OP-2 (Treatment), 00:45 Hr) was 10 and the COW score ([3]; Day 2, Patient OP-2 (Treatment), 01:00 Hr) was 9. The COW score ([3]; Day 2, Patient OP-2 (Treatment), 01:15 Hr) was 7, the COW score ([3]; Day 2, Patient OP-2 (Treatment), last cell, 30 min. post Infusion) was 4 and the COW score ([3]; Day 2, Patient OP-3 (Treatment), 00:00 Hr) was 10. For the same molecule, the COW score ([3]; Day 2, Patient OP-3 (Treatment), 00:15 Hr) was 8, the COW score ([3]; Day 2, Patient OP-3 (Treatment), 00:30 Hr) was 6 and the COW score ([3]; Day 2, Patient OP-3 (Treatment), 00:45 Hr) was 4. For the same molecule, the COW score ([3]; Day 2, Patient OP-3 (Treatment), last cell, 30 min. post Infusion) was 4, the COW score ([3]; Day 2, Patient OP-9 (Treatment), 00:30 Hr) was 14 and the COW score ([3]; Day 2, Patient OP-9 (Treatment), 00:45 Hr) was 14. The COW score ([3]; Day 2, Patient OP-9 (Treatment), 01:00 Hr) was 14, the COW score ([3]; Day 2, Patient OP-9 (Treatment), 01:15 Hr) was 12 and the COW score ([3]; Day 2, Patient OP-9 (Treatment), 01:30 Hr) was 12. For the same molecule, the COW score ([3]; Day 2, Patient OP-9 (Treatment), 01:45 Hr) was 12, the COW score ([3]; Day 2, Patient OP-9 (Treatment), 02:00 Hr) was 9 and the COW score ([3]; Day 2, Patient OP-9 (Treatment), last cell, 30 min. post Infusion) was 9. The COW score ([3]; Day 2, Patient OP-17 (Treatment), 00:00 Hr) was 14, the COW score ([3]; Day 2, Patient OP-17 (Treatment), 00:15 Hr) was 14 and the COW score ([3]; Day 2, Patient OP-17 (Treatment), 00:30 Hr) was 12. The COW score ([3]; Day 2, Patient OP-17 (Treatment), 00:45 Hr) was 11, the COW score ([3]; Day 2, Patient OP-17 (Treatment), 01:00 Hr) was 5 and the COW score ([3]; Day 2, Patient OP-17 (Treatment), last cell, 30 min. post Infusion) was 5. For the same molecule, the “Efficacy (Primary/secondary end points): subjects with COWS greater than or equal to 50% reduction” value ([3]; Opioid withdrawal Study) was 11/11 COWS, the “Range of efficacious dose of IV dexmedetomidine hydrochloride” value ([3]; Opioid withdrawal Study, continuous infusion) was 0.2 to 0.7 µg/kg/h and the “effect on physiological symptoms of opioid withdrawal (COWS)” value ([3]; opioid withdrawal) was “effectively mitigated the physiological symptoms of opioid withdrawal”. For the same molecule, the “subjects who achieved 50% reduction in COW score” value ([3]; opioid withdrawal, Day 1) was 10 out of 10, the “optimal dose at 50% of the COW score achieved, Max” value ([3]; opioid withdrawal, Day 1, n=10) was 0.4 µg/kg/h and the “optimal dose at 50% of the COW score achieved, Mean ± Sd (mean infusion rate)” value ([3]; opioid withdrawal, Day 1, n=10) was 0.29 µg/kg/h. The “optimal dose at 50% of the COW score achieved, Median” value ([3]; opioid withdrawal, Day 1, n=10) was 0.3 µg/kg/h, the “optimal dose at 50% of the COW score achieved, Min” value ([3]; opioid withdrawal, Day 1, n=10) was 0.2 µg/kg/h and the “optimal dose at 50% of the COW score achieved, Mean ± Sd (mean infusion rate)” value ([3]; opioid withdrawal, Day 1, n=10, listed as Test) was 0.29 ± 0.08 µg/kg/h. The “patients in the treatment arm who achieved 50% reduction in COW score” value ([3]; opioid withdrawal, Day 2) was 5 out of 5, the “optimal dose at 50% of the COW score achieved, Max” value ([3]; opioid withdrawal, Day 2, n=5) was 0.7 µg/kg/h and the “optimal dose at 50% of the COW score achieved, Mean ± Sd (mean infusion rate)” value ([3]; opioid withdrawal, Day 2, n=5) was “about 0.44 mcg/kg/hr”. For the same molecule, the “optimal dose at 50% of the COW score achieved, Median” value ([3]; opioid withdrawal, Day 2, n=5) was 0.4 µg/kg/h, the “optimal dose at 50% of the COW score achieved, Min” value ([3]; opioid withdrawal, Day 2, n=5) was 0.2 µg/kg/h and the “optimal dose at 50% of the COW score achieved, Mean ± Sd (mean infusion rate)” value ([3]; opioid withdrawal, Day 2, n=5, listed as Test) was 0.44 ± 0.16 µg/kg/h. The “Time for cognitive functioning, alertness/awareness, balance, reaction time to reach baseline after drowsiness” value [4] was 10 min, the “Time for cognitive functioning, alertness/awareness, balance, reaction time to reach baseline after drowsiness, Max” value [4] was 90 min and the “Time for cognitive functioning, alertness/awareness, balance, reaction time to reach baseline after drowsiness, Mean ± SD” value [4] was 42.9 ± 27.36 min. The “Time for cognitive functioning, alertness/awareness, balance, reaction time to reach baseline after drowsiness, Median” value [4] was 45 min and the “time for cognitive functioning, alertness/awareness, balance, reaction time to reach baseline level after drowsiness resolved” value [4] was at most 45 min.
